Assays:
Balb/C female mice [1] = experiment: Hematopoietic recovery after cyclophosphamide in mice (spleen weight, blood cell counts); format: in vivo, mouse
female Balb/C mice = experiment: Survival of mice irradiated with Cobalt 60 gamma radiation; format: in vivo, mouse; settings: for number of mice surviving 30 days after irradiation over number irradiated: 50 mg/kg i.p. daily 6 days from 24 h after irradiation
Balb/C female mice [2] = experiment: Hematopoietic recovery after 5-fluorouracil in mice; format: in vivo, mouse
Experimental: 5-fluorouracil (5-FU) (150 mg/kg, i.p.) was administered to forty Balb/C female mice weighing approximately 20 grams each. Twenty-four hours later and each day thereafter for a total of 8 days, mice were given a 0.4 ml i.p. injection of either physiological saline (controls) or 5′-O-palmitoylguanosine (2.5 μmoles/mouse/day in 0.2% Tween 80). On days 7 and 14 following 5-FU administration half of the animals from each group were bled and then were sacrificed by cervical dislocation. Spleens were removed and weighed, and complete blood cells counts performed.
5-fluorouracil (5-FU) (150 mg/kg, i.p.) was administered to fifty-four Balb/C female mice weighing approximately 20 grams each. Twenty-four hours later and each day thereafter for a total of 7 days, mice were given a 0.4 ml i.p. injection of either physiological saline (controls) or palmitoylguanosine (2.5 μmoles/mouse/day in 0.2% Tween 80). On days 8, 10 and 12 following administration of 5-FU nine animals from each group were bled and then sacrificed by cervical dislocation. Spleens were removed and weighed, and complete blood cell counts performed.
Twenty-eight female Balb/C mice weighing approximately 20 grams each received a 0.4 ml i.p. injection of either physiological saline (controls), or palmitoyldeoxyguanosine (1 μmole/mouse) daily for three days. On the fourth day 5-fluorouracil (5-FU) (150 mg/kg, i.p.) was administered to all 28 of the animals. On days 5, 8 and 11 following 5-FU administration 4 (day 5) or 5 (days 8 and 11) animals from both groups were bled and then sacrificed by cervical dislocation. Spleens were removed and weighed, and complete blood cell counts performed. […]
Sixty female Balb/C mice weighing approximately 20 grams each were distributed into one of five treatment groups and treated once daily for three days by i.p. injection with 3′,5′-O—N^2-tripalmitoyl-2′-deoxyguanosine at a dose of either 1, 5, 10, 25, or 50 mg/kg/treatment in a Tween-DMSO vehicle (0.2% Tween-80 and 7.5% DMSO in physiological saline). Injection volume was 0.4 ml. An additional twelve animals (controls) received vehicle alone on those three days. On the fourth day all seventy-two animals received a single i.p. injection of 5-fluorouracil (5-FU) at a dose of 150 mg/kg. On days 7 and 10 following 5-FU administration six mice from each group were bled and then sacrificed by cervical dislocation. Six untreated mice were also bled and sacrificed to provide data on normal (basal) values. Spleens were removed and weighed, and complete blood cell counts performed.

interleukin-1-alpha = experiment: LPS-induced elevation of serum interleukin-1-alpha; format: in vivo, mouse; settings: PdG 25 mg/kg i.p.
Experimental: (§1) Sixty-three female Balb/C mice were randomly assigned to one of three groups. The animals in one group received a single daily dose of N^2,3′,5′-tripalmitoyldeoxyguanosine (PdG) (25 mg/kg, i.p.), while a second group received a single daily dose of the PdG treatment vehicle (control). The third group was left untreated. On the fourth day 100 μg salmonella typhimurium LPS was administered to all three groups. Serum samples were taken just prior to LPS administration (t=0) and at two, four, six, eight, ten, twelve, sixteen, and twenty hours after LPS administration. The samples were then frozen until the time of assay. Serum levels of TNF-alpha, and IFN-gamma were measured by ELISA.
(§2) PdG also attenuated LPS-induced elevation of serum interleukin-1-alpha and interleukin-6.

[3] = test system: normal mouse bone marrow cells; experiment: Proliferation of bone marrow cells in long-term culture; format: cell-based; settings: 10 micrograms per ml
Experimental: Bone marrow cells from the femurs of B6D2F1 mice were used to establish long-term marrow cultures. After four weeks, when the stromal layer was confluent, the culture was treated with microphenolic acid in order to remove all cells from the stroma. New normal bone marrow cells (1×10^5/ml) from the same source were then used to “recharge” the stromal layer. Palmitoyldeoxyguanosine was added to half of the cultures at a concentration of 10 micrograms per ml. […] On days 4 and 7 cells from the culture were removed, washed, and replated in methylcellulose. The number of granulo-monocytic colonies was counted one week later.

interleukin-6 = experiment: LPS-induced elevation of serum interleukin-6; format: in vivo, mouse; settings: PdG 25 mg/kg i.p.
Experimental: as §1, §2

thymocytes = experiment: Corticosteroid-induced apoptosis in mouse thymus; format: in vivo
Experimental: Thymic lymphocytes, or thymocytes, undergo a suicide process known as apoptosis or programmed cell death in response to various stimuli, including ionizing radiation, calcium ionophores, glucocorticoid hormones, and other agents. Apoptosis is also part of the normal physiological process of development and of lymphocyte (and other cell) selection.
Eight male B6D2F1 mice weighing approximately twenty-five grams were given a single injection of either palmitoyldeoxyguanosine (25 mg/kg, i.p.) in a Tween-DMSO vehicle (0.02% Tween and 7.5% DMSO in physiological saline) or vehicle alone. Forty-eight hours later these mice were given an i.p. injection of a long-acting corticosteroid, methylprednisolone acetate (Depo-Medrol; 250 mg/kg). Forty-eight hours following administration of the corticosteroid, all eight of these animals and four additional untreated animals (basals) were sacrificed by cervical dislocation, the thymuses and spleens removed and weighed, and thymic cell number and viability measured by established methods.

[4] = Ex 47: day 7 after CP, 2.5 μmoles/mouse/day
[5] = Ex 53: day 5 after CP, palmitoylguanosine 2.0, palmitoyldeoxyguanosine 1.0 μmoles/mouse
[6] = Ex 53: day 7 after CP, palmitoylguanosine 1.0 and 2.0, palmitoyldeoxyguanosine 1.0 μmoles/mouse
[7] = Table 5 (Ex 62): 5 days after CP
[8] = Table 6 (Ex 62): 7 days after CP
[9] = Table 7 (Ex 63): 5 days after CP
[10] = Table 8 (Ex 63): 7 days after CP
[11] = Table 9: 7 days after 5-FU, 10 mg/kg pretreatment
[12] = Table 9: 7 days after 5-FU, 25 mg/kg pretreatment
[13] = Table 9: 7 days after 5-FU, 50 mg/kg pretreatment
[14] = Table 10: 10 days after 5-FU, 5 mg/kg pretreatment
[15] = Table 10: 10 days after 5-FU, 10 mg/kg pretreatment
[16] = Table 10: 10 days after 5-FU, 25 mg/kg pretreatment
[17] = Table 10: 10 days after 5-FU, 50 mg/kg pretreatment

CCCCCCCCCCCCCCCC(=O)OC[C@H]1O[C@@H](n2cnc3c(=O)[nH]c(N)nc32)[C@H](O)[C@@H]1O
white blood cell (WBC) counts (Balb/C female mice [1]; Ex 38: day 7 after CP, guanosine 5, acyl derivatives 2.5 μmoles/mouse/day in 0.2% Tween 80): greatest effect | spleen weight (Balb/C female mice [1]; Ex 41: day 7 after CP, 5 μmoles/mouse/day in 0.2% Tween 80 on days 1-2, 1-4, 3-5, 4-6 or 1-6, vs saline): significantly greater | Total white blood cell (WBC) counts (Balb/C female mice [1]; Ex 41: day 7 after CP, 5 μmoles/mouse/day, each timing group, vs saline): significantly greater | lymphocyte counts (Balb/C female mice [1]; Ex 41: day 7 after CP, treatment on days 1-2 or 1-6): elevated | total neutrophil counts (Balb/C female mice [1]; Ex 41: day 7 after CP, treatment on days 1-6): greatest increase | Neutrophils (Balb/C female mice [1]; [4]): significantly elevated | spleen weight (Balb/C female mice [1]; [4]): significantly elevated | total white blood cells (Balb/C female mice [1]; Ex 47: day 7 after CP, 2.5 μmoles/mouse/day in 0.2% Tween 80 i.p. 6 days): significantly elevated | spleen weight (Balb/C female mice [1]; Ex 50: day 5 after CP, 2 μmoles/mouse): significantly elevated | total neutrophil counts (Balb/C female mice [1]; Ex 53: day 5 after CP, 1.0 μmoles/mouse): significantly increased | spleen weight (Balb/C female mice [1]; [5]): significantly elevated | total neutrophil counts (Balb/C female mice [1]; [5]): significantly elevated | white blood cell counts (Balb/C female mice [1]; [5]): significantly elevated | spleen weight (Balb/C female mice [1]; [6]): significantly elevated | total neutrophil counts (Balb/C female mice [1]; [6]): significantly elevated | white blood cell counts (Balb/C female mice [1]; [6]): significantly elevated | number of mice surviving 30 days after irradiation over number irradiated (female Balb/C mice; 725 R): 5/5 | number of mice surviving 30 days after irradiation over number irradiated (female Balb/C mice; 750 R): 5/5 | survival (female Balb/C mice; pretreatment prior to irradiation): improved survival | spleen weight (Balb/C female mice [2]; Ex 42: day 7 after 5-FU 150 mg/kg, 2.5 μmoles/mouse/day in 0.2% Tween 80 i.p. 8 days): slight, but statistically significant, increase | Lymphocytes (Balb/C female mice [2]; Ex 42: day 14 after 5-FU): significantly higher | Neutrophils (Balb/C female mice [2]; Ex 42: day 14 after 5-FU): significantly higher | Platelets (Balb/C female mice [2]; Ex 42: day 14 after 5-FU): significantly higher | spleen weight (Balb/C female mice [2]; Ex 42: day 14 after 5-FU): significantly heavier | total leukocytes (Balb/C female mice [2]; Ex 42: day 14 after 5-FU): significantly higher | number of platelets (Balb/C female mice [2]; Ex 43: day 8 after 5-FU, 2.5 μmoles/mouse/day in 0.2% Tween 80 i.p. 7 days): significantly greater | number of platelets (Balb/C female mice [2]; Ex 43: day 10 after 5-FU): greater numbers | spleen size (Balb/C female mice [2]; Ex 43: day 10 after 5-FU): significantly larger | number of neutrophils vs control (Balb/C female mice [2]; Ex 43: day 12 after 5-FU): 3 fold | spleen weight vs control mice (Balb/C female mice [2]; Ex 43: day 12 after 5-FU): more than double

CCCCCCCCCCCCCCCC(=O)Nc1nc2c(ncn2[C@H]2C[C@H](OC(=O)CCCCCCCCCCCCCCC)[C@@H](COC(=O)CCCCCCCCCCCCCCC)O2)c(=O)[nH]1 [PdG, 3′,5′-O-N^2-tripalmitoyl-2′-deoxyguanosine]
Neutrophils (Balb/C female mice [1]; [7]): 2.5 ± .3 K/μl | WBC (Balb/C female mice [1]; [7]): 4.1 ± .4 K/μl | Spleen (Balb/C female mice [1]; Table 5 (Ex 62): 5 days after CP 250 mg/kg, triPdG 25 mg/kg/treatment, diPdG molar equivalent, i.p. daily): 77 ± 7 mg | Neutrophils (Balb/C female mice [1]; [8]): 9.9 ± .9 K/μl | Platelets (Balb/C female mice [1]; [8]): 549 ± 25 K/μl | WBC (Balb/C female mice [1]; [8]): 13.4 ± .4 K/μl | Spleen (Balb/C female mice [1]; Table 6 (Ex 62): 7 days after CP, triPdG 25 mg/kg, diPdG molar equivalent, daily 5 days): 156 ± 12 mg | Neutrophils (Balb/C female mice [1]; [9]): 0.6 ± .1 K/μl | WBC (Balb/C female mice [1]; [9]): 3.6 ± .4 K/μl | Spleen (Balb/C female mice [1]; Table 7 (Ex 63): 5 days after CP 250 mg/kg, TriPdG 25 mg/kg/treatment, others molar equivalent, i.p. daily): 73 ± 3 mg | Neutrophils (Balb/C female mice [1]; [10]): 7.3 ± .3 K/μl | Platelets (Balb/C female mice [1]; [10]): 674 ± 37 K/μl | WBC (Balb/C female mice [1]; [10]): 3.6 ± .4 K/μl | Spleen (Balb/C female mice [1]; Table 8 (Ex 63): 7 days after CP, TriPdG 25 mg/kg, others molar equivalent, daily 5 days): 198 ± 23 mg | LPS-induced elevation of serum interleukin-1-alpha (interleukin-1-alpha): attenuated | Cells ([3]; day 1): 1.9 ± .13 10^6/flask | Cells ([3]; day 3): 2.9 ± .10 10^6/flask | CFU-GM/flask ([3]; day 4): 5123 ± 561 | Cells ([3]; day 5): 7.7 ± .2 10^6/flask | CFU-GM/flask ([3]; day 7): 33903 ± 9457 | Cells ([3]; day 7): 4.3 ± .15 10^6/flask | LPS-induced elevation of serum interleukin-6 (interleukin-6): attenuated | Platelets (Balb/C female mice [2]; Table 9: 7 days after 5-FU, 5 mg/kg pretreatment): 682 ± 66 K/μl | Platelets (Balb/C female mice [2]; [11]): 571 ± 41 K/μl | Spleen (Balb/C female mice [2]; [11]): 83 ± 6 mg | Platelets (Balb/C female mice [2]; [12]): 587 ± 19 K/μl | Spleen (Balb/C female mice [2]; [12]): 93 ± 5 mg | Platelets (Balb/C female mice [2]; [13]): 596 ± 43 K/μl | Spleen (Balb/C female mice [2]; [13]): 102 ± 4 mg | Neutrophils (Balb/C female mice [2]; Table 10: 10 days after 5-FU, 1 mg/kg pretreatment): 0.4 ± .2 K/μl | Neutrophils (Balb/C female mice [2]; [14]): 1.6 ± .4 K/μl | Spleen (Balb/C female mice [2]; [14]): 157 ± 13 mg | Neutrophils (Balb/C female mice [2]; [15]): 1.8 ± .4 K/μl | Spleen (Balb/C female mice [2]; [15]): 169 ± 24 mg | Lymphocytes (Balb/C female mice [2]; [16]): 8.3 ± .4 K/μl | Neutrophils (Balb/C female mice [2]; [16]): 2.9 ± .4 K/μl | Spleen (Balb/C female mice [2]; [16]): 293 ± 17 mg | WBC (Balb/C female mice [2]; [16]): 11.4 ± .6 K/μl | Lymphocytes (Balb/C female mice [2]; [17]): 8.3 ± 1.0 K/μl | Neutrophils (Balb/C female mice [2]; [17]): 2.2 ± .5 K/μl | Spleen (Balb/C female mice [2]; [17]): 320 ± 39 mg | WBC (Balb/C female mice [2]; [17]): 10.8 ± 1.6 K/μl | Cells/Thymus (thymocytes; 25 mg/kg i.p. 48 h before Depo-Medrol 250 mg/kg, 48 h after): 64 ± 12 ×10^6 | Spleen Wt. (thymocytes; 25 mg/kg i.p. once, 48 h before Depo-Medrol 250 mg/kg, 48 h after corticosteroid): 61 ± 11 mg | % Viable (thymocytes; thymic cells, 25 mg/kg i.p. 48 h before Depo-Medrol 250 mg/kg, 48 h after): 87 ± 3 %
